Measurements as given in patent US20120029054A1, “RNA Interference Mediated Inhibition of GATA Binding Protein 3 (GATA3) Gene Expression Using Short Intefering Nucleic Acid (siNA)” (Merck Sharp & Dohme Corp., priority 2009, published 2012).
[invAb] = inverted abasic unit; m = 2'-O-methyl; r = 2'-OH (RNA); f = 2'-fluoro

Columns and labels:
GATA3 mRNA [1] = assay: GATA3 mRNA knock-down (Taqman qRT-PCR) after RNAiMax transfection of human MCF7 cells; screen and IC50 dose response; assay type: cell-based; details: 10 nM siNA, MCF7 cells, 24 hrs
Experimental: MCF7 (human; ATCC cat# HTB-22): Cells were cultured at 37° C. in the presence of 5% CO2 and grown in Eagle's Minimum Essential medium with supplemented with fetal bovine serum at a final concentration of 10% and 100 μg/mL of streptomycin and 100 U/mL penicillin.
(§1) Cells were plated in all wells of a tissue-culture treated, 96-well plate at a final count of 5000 cells/well in 100 μL of the appropriate culture media. The cells were cultured for 24 hours after plating at 37° C. in the presence of 5% CO2.
(§2) After 24 hours, complexes containing siNA and RNAiMax were created as follows: A solution of RNAiMax diluted 33-fold in OPTI-MEM was prepared. In parallel, solutions of the siNAs for testing were prepared to a final concentration of 120 nM in OPTI-MEM. After incubation of RNAiMax/OPTI-MEM solution at room temperature for 5 min, an equal volume of the siNA solution and the RNAiMax solution were added together for each of the siNAs.
(§3) This solution was incubated at room temperature for 20 minutes. After incubation, 20 uL of the solution was added to each of the relevant wells. The final concentration of siNA in each well was 10 nM and the final volume of RNAiMax in each well was 0.3 ul.
(§4) The time of incubation with the RNAiMax-siNA complexes was 24 hours and there was no change in media between transfection and harvesting, unless otherwise indicated.
(§5) RNA was extracted from a 96-well plate using the TaqMan® Gene Expression Cells-to-CT™ Kit (Cat#4399002) with a modified protocol. Briefly, a 60 uL (1 plate) or 110 uL (2 plates) of the Lysis Solution with DNase I was dispensed into each well of the Lysis Buffer Plate (twin.tec full skirt plate). The lysis buffer and stop plates were stored at 4° C. until the cells were washed.
(§6) The plate was spun at 1100 rpm for 5 minutes. The culture medium was aspirated and discarded from the wells of the culture plate. The lysis was performed automatically using a BioMek FX instrument and method. After the Biomek method was completed, the lysis plate was incubated for 2 min. at room temperature. The lysis plate can be stored for 2 hours at 4° C., or at −20° C. or −80° C. for two months.
(§7) Each well of the reverse transcription plate required 10 uL of 2× reverse transcriptase Buffer, 1 uL of 20× reverse transcription enzyme and 2 uL of nuclease-free water. The reverse transcription master mix was prepared by mixing 2× reverse transcription buffer, 20× reverse transcription enzyme mix, and nuclease-free water. 13 uL of the reverse transcription master mix was dispensed into each well of the reverse transcription plate (semi-skirted). A separate reverse transcription plate was prepared for each cell plate. The plate was loaded onto a Biomek NX or Biomek FX Dual-96 and the Biomek method was run. The program is programmed to automatically added 7 uL of lysate from the cell lysis procedure described above into each well of the reverse transcription plate. The plate is sealed and spun on a centrifuge (1000 rpm for 30 seconds) to settle the contents to the bottom of the reverse transcription plate. The plate is placed in a thermocycler at 37° C. for 60 min, 95° C. for 5 min, and 4° C. until the plate is removed from the thermocycler. Upon removal, if not used immediately, the plate was frozen at −20° C.
(§8) A series of probes and primers were used to detect the various mRNA transcripts of the genes of β-Actin (human cell line only), and of GATA3 and GAPDH in mouse and human cell lines. All Taqman probes and primers for the experiments here-in described were supplied as pre-validated sets by Applied Biosystems, Inc. (see Table 2).
(§9) The assays were performed on an ABI 7900 instrument, according to the manufacturer's instructions. A TaqMan Gene Expression Master Mix (provided in the Cells-to-CT™, Applied Biosystems, Cat #4399002) was used. The PCR reactions were carried out at 50° C. for 2 min, 95° C. for 20 min followed by 40 cycles at 95° C. for 15 secs and 60° C. for 1 min. […]

GATA3 mRNA [2] = assay: GATA3 mRNA knock-down (Taqman qRT-PCR) after RNAiMax transfection of mouse RAG cells; assay type: cell-based; details: 10 nM siNA, 24 hrs, average of 2 experiments
Experimental: RAG (murine; ATCC cat# CCL-142): Cells were cultured at 37° C. in the presence of 5% CO2 and grown in Eagle's Minimum Essential medium with supplemented with 10% of fetal bovine serum, 100 μg/mL of streptomycin, and 100 U/mL penicillin.
as §1, §2, §3, §4, §5, §6, §7, §8, §9

Substance | % KD Human (GATA3 mRNA [1]; * Hs00231122_m1 Taqman Assay) | % KD Human (GATA3 mRNA [1]; ** Hs00922328_m1 Taqman Assay) | % KD Mouse (GATA3 mRNA [2]) | % KD Human (GATA3 mRNA [1]; average of 3 experiments)
30272-DC: GATA3 siNA duplex, mouse site 807: sense B GAGGuAuccuccGAcccAc TTB (SEQ 97), antisense GUGGGucGGAGGAuAccucUU (SEQ 98) (sense GAGGUAUCCUCCGACCCACTT; antisense GUGGGUCGGAGGAUACCUCUU; chemistry not fully specified) | 69 ± 3* % | 33 ± 19** % | 85 ± 0% | 
30273-DC: GATA3 siNA duplex, mouse site 1489: sense B cuuAucAAGcccAAGcGAA TTB (SEQ 99), antisense UUCGcuuGGGcuuGAuAAGUU (SEQ 100) (sense CUUAUCAAGCCCAAGCGAATT; antisense UUCGCUUGGGCUUGAUAAGUU; sense: DNA at AGT, 2'-fluoro at CU, [invAb] at 5' end, 3' end, backbone not given here; antisense: chemistry not given here) |  |  | 33 ± 1% | −3 ± 16%
30274-DC: GATA3 siNA duplex, mouse site 704: sense B cucAGuAuccGcuGAcGGA TTB (SEQ 101), antisense UCCGucAGcGGAuAcuGAGUU (SEQ 102) (sense CUCAGUAUCCGCUGACGGATT; antisense UCCGUCAGCGGAUACUGAGUU; sense: DNA at AGT, 2'-fluoro at CU, [invAb] at 5' end, 3' end, backbone not given here; antisense: sugars from the 5' end rrrmffmmfmmmfmffmmmmm, backbone not given here) |  |  | −2 ± 4% | 0 ± 13%
30275-DC: GATA3 siNA duplex, mouse site 794: sense B GGGcuAcGGuGcAGAGGuA TTB (SEQ 103), antisense UACcucuGcAccGuAGcccUU (SEQ 104) (sense GGGCUACGGUGCAGAGGUATT; antisense UACCUCUGCACCGUAGCCCUU; sense: DNA at AGT, 2'-fluoro at CU, [invAb] at 5' end, 3' end, backbone not given here; antisense: sugars from the 5' end rrrffffmfmffmfmmfffmm, backbone not given here) |  |  | 49 ± 7% | 42 ± 8%
30276-DC: GATA3 siNA duplex, mouse site 678: sense B GGGccucGGccAuucGuAc TTB (SEQ 105), antisense GUAcGAAuGGccGAGGcccUU (SEQ 106) (sense GGGCCUCGGCCAUUCGUACTT; antisense GUACGAAUGGCCGAGGCCCUU; sense: DNA at AGT, 2'-fluoro at CU, [invAb] at 5' end, 3' end, backbone not given here; antisense: sugars from the 5' end rrrfmmmfmmffmmmmfffmm, backbone not given here) |  |  | −2 ± 6% | −12 ± 16%
30277-DC: GATA3 siNA duplex, mouse site 1535: sense B cAuccuGcGcGAAcuGucA TTB (SEQ 107), antisense UGAcAGuucGcGcAGGAuGUU (SEQ 108) (sense CAUCCUGCGCGAACUGUCATT; antisense UGACAGUUCGCGCAGGAUGUU; sense: DNA at AGT, 2'-fluoro at CU, [invAb] at 5' end, 3' end, backbone not given here; antisense: sugars from the 5' end rrrfmmfffmfmfmmmmfmmm, backbone not given here) |  |  | 26 ± 4% | −4 ± 7%
30278-DC: GATA3 siNA duplex, mouse site 720: sense B GGAAGAGGuGGAcGuAcuu TTB (SEQ 109), antisense AAGuAcGuCCAccucuuccUU (SEQ 110) (sense GGAAGAGGUGGACGUACUUTT; antisense AAGUACGUCCACCUCUUCCUU; sense: DNA at AGT, 2'-fluoro at CU, [invAb] at 5' end, 3' end, backbone not given here; antisense: chemistry not given here) |  |  | 60 ± 2% | −18 ± 5%
30279-DC: GATA3 siNA duplex, mouse site 1448: sense B ccuGcGGAcucuAccAuAA TTB (SEQ 111), antisense UUAuGGuAGAGuccGcAGGUU (SEQ 112) (sense CCUGCGGACUCUACCAUAATT; antisense UUAUGGUAGAGUCCGCAGGUU; sense: DNA at AGT, 2'-fluoro at CU, [invAb] at 5' end, 3' end, backbone not given here; antisense: sugars from the 5' end rrrfmmfmmmmfffmfmmmmm, backbone not given here) |  |  | 68 ± 4% | −27 ± 12%
30280-DC: GATA3 siNA duplex, mouse site 1106: sense B ccGGGucGGccAGGcAAGA TTB (SEQ 113), antisense UCUuGccuGGccGAcccGGUU (SEQ 114) (sense CCGGGUCGGCCAGGCAAGATT; antisense UCUUGCCUGGCCGACCCGGUU; sense: DNA at AGT, 2'-fluoro at CU, [invAb] at 5' end, 3' end, backbone not given here; antisense: sugars from the 5' end rrrfmfffmmffmmfffmmmm, backbone not given here) |  |  | 1 ± 2% | −16 ± 12%
30281-DC: GATA3 siNA duplex, human/mouse site 904: sense B ccuucuccAAGAcGuccAu TTB (SEQ 115), antisense AUGGAcGucuuGGAGAAGGUU (SEQ 116) (sense CCUUCUCCAAGACGUCCAUTT; antisense AUGGACGUCUUGGAGAAGGUU; sense: DNA at AGT, 2'-fluoro at CU, [invAb] at 5' end, 3' end, backbone not given here; antisense: sugars from the 5' end rrrmmfmffffmmmmmmmmmm, backbone not given here) |  |  | 13 ± 3% | −14 ± 7%
30282-DC: GATA3 siNA duplex, human/mouse site 2587: sense B cAccAAAAuAAGAAAAGAu TTB (SEQ 117), antisense AUCuuuucuuAuuuuGGuGUU (SEQ 118) (sense CACCAAAAUAAGAAAAGAUTT; antisense AUCUUUUCUUAUUUUGGUGUU; sense: DNA at AGT, 2'-fluoro at CU, [invAb] at 5' end, 3' end, backbone not given here; antisense: sugars from the 5' end rrrfffffffmffffmmfmmm, backbone not given here) |  |  | 84 ± 1% | 46 ± 8%
